Tested on: 485176-168-R4-J1-PDC spheroids with HUVEC/MSC, viability
Test: Anticancer human tumor 485176-168-R4-J1-PDC patient-derived pancreatic adenocarcinoma cell line growth inhibition [GQUAD]
Conditions: for IC50: curve of first compound; for viability, T/C: stronger effect = lower value
Summary of the method: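 Multi-cell-type spheroids of tumor cells with HUVEC and mesenchymal stem cells, treated with drug combinations. Concentrations descend in half-log steps from near clinical Cmax, or from 10 microM where Cmax is unknown; viability read-out.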

[1] = second compound 0.0316 µM, first compound 0.000999 µM
[2] = second compound 0.0316 µM, first compound 0.00316 µM
[3] = second compound 0.0316 µM, first compound 0.00999 µM
[4] = second compound 0.0316 µM, first compound 0.0316 µM
[5] = second compound 0.0316 µM, first compound 0.0999 µM
[6] = second compound 0.0316 µM, first compound 0.316 µM
[7] = second compound 0.1 µM, first compound 0.000999 µM
[8] = second compound 0.1 µM, first compound 0.00316 µM
[9] = second compound 0.1 µM, first compound 0.00999 µM
[10] = second compound 0.1 µM, first compound 0.0316 µM
[11] = second compound 0.1 µM, first compound 0.0999 µM
[12] = second compound 0.1 µM, first compound 0.316 µM
[13] = second compound 0.316 µM, first compound 0.000999 µM
[14] = second compound 0.316 µM, first compound 0.00316 µM
[15] = second compound 0.316 µM, first compound 0.00999 µM
[16] = second compound 0.316 µM, first compound 0.0316 µM
[17] = second compound 0.316 µM, first compound 0.0999 µM
[18] = second compound 0.316 µM, first compound 0.316 µM
[19] = second compound 1 µM, first compound 0.000999 µM
[20] = second compound 1 µM, first compound 0.00316 µM
[21] = second compound 1 µM, first compound 0.00999 µM
[22] = second compound 1 µM, first compound 0.0316 µM
[23] = second compound 1 µM, first compound 0.0999 µM
[24] = second compound 1 µM, first compound 0.316 µM
[25] = second compound 3.16 µM, first compound 0.000999 µM
[26] = second compound 3.16 µM, first compound 0.00316 µM
[27] = second compound 3.16 µM, first compound 0.00999 µM
[28] = second compound 3.16 µM, first compound 0.0316 µM
[29] = second compound 3.16 µM, first compound 0.0999 µM
[30] = second compound 3.16 µM, first compound 0.316 µM
[31] = second compound 10 µM, first compound 0.000999 µM
[32] = second compound 10 µM, first compound 0.00316 µM
[33] = second compound 10 µM, first compound 0.00999 µM
[34] = second compound 10 µM, first compound 0.0316 µM
[35] = second compound 10 µM, first compound 0.0999 µM
[36] = second compound 10 µM, first compound 0.316 µM
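Further: spheroids exposed to compounds for seven days before readout.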
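Wherever viability, T/C is given: percent viability relative to DMSO vehicle control wells as 100%.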

CC[C@@]1(O)C(=O)OCc2c1cc1n(c2=O)Cc2cc3c(CN(C)C)c(O)ccc3nc2-1 + CN(C)c1ccc(Nc2c3ccc(NC(=O)CCN4CCCC4)cc3nc3cc(NC(=O)CCN4CCCC4)ccc23)cc1
IC50 (second compound 0.0316 µM): 180 nM
IC50 (second compound 0.1 µM): 185 nM
IC50 (second compound 0.316 µM): 168 nM
IC50 (second compound 1 µM): 191 nM
IC50 (second compound 3.16 µM): 128 nM
IC50 (second compound 10 µM): 232 nM
viability, T/C [1]: 97.9%
viability, T/C [2]: 88.1%
viability, T/C [3]: 83.8%
viability, T/C [4]: 90.6%
viability, T/C [5]: 65%
viability, T/C [6]: 35.6%
viability, T/C [7]: 94.8%
viability, T/C [8]: 106%
viability, T/C [9]: 95.9%
viability, T/C [10]: 81%
viability, T/C [11]: 64.5%
viability, T/C [12]: 38.4%
viability, T/C [13]: 97.3%
viability, T/C [14]: 117%
viability, T/C [15]: 107%
viability, T/C [16]: 99.1%
viability, T/C [17]: 55.7%
viability, T/C [18]: 43.1%
viability, T/C [19]: 89.1%
viability, T/C [20]: 97.7%
viability, T/C [21]: 99.1%
viability, T/C [22]: 81.1%
viability, T/C [23]: 69.5%
viability, T/C [24]: 35.8%
viability, T/C [25]: 104%
viability, T/C [26]: 99.7%
viability, T/C [27]: 87.2%
viability, T/C [28]: 76.6%
viability, T/C [29]: 52.6%
viability, T/C [30]: 35.5%
viability, T/C [31]: 108%
viability, T/C [32]: 98.6%
viability, T/C [33]: 88.3%
viability, T/C [34]: 94.6%
viability, T/C [35]: 63.5%
viability, T/C [36]: 44%

CCc1c2c(nc3ccc(O)cc13)-c1cc3c(c(=O)n1C2)COC(=O)[C@]3(O)CC + CN(C)c1ccc(Nc2c3ccc(NC(=O)CCN4CCCC4)cc3nc3cc(NC(=O)CCN4CCCC4)ccc23)cc1
IC50 (second compound 0.0316 µM): 6.98 nM
IC50 (second compound 0.1 µM): 9.32 nM
IC50 (second compound 0.316 µM): 9.31 nM
IC50 (second compound 1 µM): 7.26 nM
IC50 (second compound 3.16 µM): 11.2 nM
IC50 (second compound 10 µM): 7.71 nM
viability, T/C [1]: 87.7%
viability, T/C [2]: 68.4%
viability, T/C [3]: 38.3%
viability, T/C [4]: 28.5%
viability, T/C [5]: 13.5%
viability, T/C [6]: 6%
viability, T/C [7]: 77.8%
viability, T/C [8]: 67.9%
viability, T/C [9]: 48.1%
viability, T/C [10]: 28.6%
viability, T/C [11]: 11.2%
viability, T/C [12]: 5.98%
viability, T/C [13]: 91.1%
viability, T/C [14]: 86.8%
viability, T/C [15]: 41.8%
viability, T/C [16]: 27.6%
viability, T/C [17]: 12.9%
viability, T/C [18]: 6.92%
viability, T/C [19]: 103%
viability, T/C [20]: 58%
viability, T/C [21]: 50.7%
viability, T/C [22]: 28.1%
viability, T/C [23]: 13.8%
viability, T/C [24]: 6.15%
viability, T/C [25]: 88.8%
viability, T/C [26]: 88%
viability, T/C [27]: 43.4%
viability, T/C [28]: 34.2%
viability, T/C [29]: 14.3%
viability, T/C [30]: 8.88%
viability, T/C [31]: 80.3%
viability, T/C [32]: 61%
viability, T/C [33]: 45.3%
viability, T/C [34]: 34.1%
viability, T/C [35]: 19.3%
viability, T/C [36]: 8.05%

COc1cc(C2c3cc4c(cc3C(OC3OC5COC(C)OC5C(O)C3O)C3COC(=O)C23)OCO4)cc(OC)c1O (stereo unspecified) + CN(C)c1ccc(Nc2c3ccc(NC(=O)CCN4CCCC4)cc3nc3cc(NC(=O)CCN4CCCC4)ccc23)cc1
IC50 (second compound 0.0316 µM): 340 nM
IC50 (second compound 0.1 µM): 476 nM
IC50 (second compound 0.316 µM): 474 nM
IC50 (second compound 1 µM): 412 nM
IC50 (second compound 3.16 µM): 333 nM
IC50 (second compound 10 µM): 303 nM
viability, T/C [4]: 87%
viability, T/C (second compound 0.0316 µM, first compound 0.1 µM): 74.7%
viability, T/C [6]: 38.9%
viability, T/C (second compound 0.0316 µM, first compound 1 µM): 39.6%
viability, T/C (second compound 0.0316 µM, first compound 3.16 µM): 30.1%
viability, T/C (second compound 0.0316 µM, first compound 10 µM): 9.84%
viability, T/C [10]: 89.6%
viability, T/C (second compound 0.1 µM, first compound 0.1 µM): 82.8%
viability, T/C [12]: 46.4%
viability, T/C (second compound 0.1 µM, first compound 1 µM): 41.2%
viability, T/C (second compound 0.1 µM, first compound 3.16 µM): 29.2%
viability, T/C (second compound 0.1 µM, first compound 10 µM): 12.1%
viability, T/C [16]: 98.8%
viability, T/C (second compound 0.316 µM, first compound 0.1 µM): 81.5%
viability, T/C [18]: 47.5%
viability, T/C (second compound 0.316 µM, first compound 1 µM): 42.2%
viability, T/C (second compound 0.316 µM, first compound 3.16 µM): 26.3%
viability, T/C (second compound 0.316 µM, first compound 10 µM): 10.1%
viability, T/C [22]: 90.6%
viability, T/C (second compound 1 µM, first compound 0.1 µM): 71.6%
viability, T/C [24]: 50.6%
viability, T/C (second compound 1 µM, first compound 1 µM): 39.1%
viability, T/C (second compound 1 µM, first compound 3.16 µM): 24.6%
viability, T/C (second compound 1 µM, first compound 10 µM): 9.92%
viability, T/C [28]: 75.5%
viability, T/C (second compound 3.16 µM, first compound 0.1 µM): 63.7%
viability, T/C [30]: 44.5%
viability, T/C (second compound 3.16 µM, first compound 1 µM): 39.5%
viability, T/C (second compound 3.16 µM, first compound 3.16 µM): 33.6%
viability, T/C (second compound 3.16 µM, first compound 10 µM): 12.8%
viability, T/C [34]: 95.5%
viability, T/C (second compound 10 µM, first compound 0.1 µM): 69.8%
viability, T/C [36]: 45.3%
viability, T/C (second compound 10 µM, first compound 1 µM): 36.9%
viability, T/C (second compound 10 µM, first compound 3.16 µM): 23.4%
viability, T/C (second compound 10 µM, first compound 10 µM): 10.2%

— PubChem BioAssay AID2060509 (Molecular Pharmacology Branch, DTP, NCI, 2025)
